Earlier results as cited in US20230106284A1, “SYSTEM AND METHOD FOR GENERATING POTENTIAL DRUG COMPOSITIONS FOR DISEASE TARGET” (Innoplexus AG, priority 2020, published 2023).

Conditions: oral delivery

For O=C(O)c1ccc(-n2nc(-c3ccccc3O)nc2-c2ccccc2O)cc1 [DFX, deferasirox], the bioavailability is given as “about 70%” and the volume of distribution is given as 14.37±2.69 litter.
